Test results from patent US20080234262A1 (Wyeth, priority 2007, published 2008).

Tests used:
[1] = test system: breast line MDA468; assay: In vitro cell culture growth assay (MTS), MDA468; type: cell-based, human; details: MDA468 cells, three days after drug treatment
How it was run: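 Cells were plated and, one day later, exposed to inhibitors for three days; viable cell density was then measured by metabolic conversion of MTS dye, read as absorbance at 490 nm. Growth is expressed as percent of vehicle-treated control cells on the same plate.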

[2] = test system: prostate line LNCap; assay: In vitro cell culture growth assay (MTS), LNCap; type: cell-based, human; details: LNCap cells, three days after drug treatment
[3] = molecular target: PI3K (Homo sapiens, UniProt P42336); assay: Fluorescence polarization assay for PI3K; type: biochemical; details: PI3Kα; read-out: PI3Kα IC50;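 also: PI3K kinase reaction on PIP2 with ATP, 30-60 min, product sensed by GST-GRP with red probe in fluorescence polarization (mP), controls without enzyme and at zero time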
Chain of PI3K (P42336 whole entry): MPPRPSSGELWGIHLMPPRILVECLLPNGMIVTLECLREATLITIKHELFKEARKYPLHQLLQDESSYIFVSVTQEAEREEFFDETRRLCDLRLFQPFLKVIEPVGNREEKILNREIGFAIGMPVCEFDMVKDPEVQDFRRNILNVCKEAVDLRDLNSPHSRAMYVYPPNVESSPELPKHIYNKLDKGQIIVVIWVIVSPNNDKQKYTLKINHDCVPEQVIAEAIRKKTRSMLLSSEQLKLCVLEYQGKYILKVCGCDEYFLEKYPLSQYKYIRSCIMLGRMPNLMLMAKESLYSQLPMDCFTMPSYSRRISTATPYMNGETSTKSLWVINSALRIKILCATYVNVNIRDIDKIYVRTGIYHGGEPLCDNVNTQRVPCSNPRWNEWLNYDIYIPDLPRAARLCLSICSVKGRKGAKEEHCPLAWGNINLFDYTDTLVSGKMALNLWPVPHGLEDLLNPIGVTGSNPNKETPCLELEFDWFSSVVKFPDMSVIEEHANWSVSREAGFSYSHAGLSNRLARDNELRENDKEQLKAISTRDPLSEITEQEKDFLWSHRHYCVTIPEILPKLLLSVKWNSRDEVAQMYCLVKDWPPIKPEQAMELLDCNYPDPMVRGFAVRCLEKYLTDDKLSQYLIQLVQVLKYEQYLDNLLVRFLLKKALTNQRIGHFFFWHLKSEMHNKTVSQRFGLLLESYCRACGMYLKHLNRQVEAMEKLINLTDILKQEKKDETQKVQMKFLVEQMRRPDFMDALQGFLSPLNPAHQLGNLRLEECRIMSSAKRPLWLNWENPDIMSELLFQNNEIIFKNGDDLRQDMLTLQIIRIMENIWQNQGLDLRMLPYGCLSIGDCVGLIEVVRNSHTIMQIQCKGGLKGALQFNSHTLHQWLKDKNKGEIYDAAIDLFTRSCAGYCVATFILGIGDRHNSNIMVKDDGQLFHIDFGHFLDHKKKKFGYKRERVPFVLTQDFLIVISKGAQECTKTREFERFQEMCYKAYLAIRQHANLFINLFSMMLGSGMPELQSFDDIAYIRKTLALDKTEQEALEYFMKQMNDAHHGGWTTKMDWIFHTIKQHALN
Chain of PI3K (P27986 whole entry partner): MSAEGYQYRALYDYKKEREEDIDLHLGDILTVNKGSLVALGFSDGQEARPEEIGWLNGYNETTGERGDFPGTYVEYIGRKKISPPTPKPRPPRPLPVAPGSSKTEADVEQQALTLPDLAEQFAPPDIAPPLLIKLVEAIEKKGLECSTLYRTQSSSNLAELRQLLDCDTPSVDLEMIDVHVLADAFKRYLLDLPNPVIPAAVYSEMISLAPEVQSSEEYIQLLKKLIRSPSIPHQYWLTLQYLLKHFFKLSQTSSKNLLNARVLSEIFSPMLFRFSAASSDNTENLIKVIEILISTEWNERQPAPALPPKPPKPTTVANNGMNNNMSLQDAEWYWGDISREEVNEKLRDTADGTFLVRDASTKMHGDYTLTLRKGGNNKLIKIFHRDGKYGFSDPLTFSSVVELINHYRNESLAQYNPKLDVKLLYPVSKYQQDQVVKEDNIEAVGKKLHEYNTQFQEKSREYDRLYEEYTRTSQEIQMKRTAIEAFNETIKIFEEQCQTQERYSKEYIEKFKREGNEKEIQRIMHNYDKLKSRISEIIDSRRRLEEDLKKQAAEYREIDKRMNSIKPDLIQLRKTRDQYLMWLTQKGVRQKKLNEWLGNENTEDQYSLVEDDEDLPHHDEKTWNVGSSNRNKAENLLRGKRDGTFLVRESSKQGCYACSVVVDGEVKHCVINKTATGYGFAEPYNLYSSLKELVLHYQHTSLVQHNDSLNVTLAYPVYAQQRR

| Compound | IC50 [2] [nM] | IC50 [3] [nM] | IC50 ([2]; Homo sapiens, LNCaP, 72 h) [nM] | IC50 [1] [nM] | IC50 ([1]; Homo sapiens, 72 h) [nM] |
| --- | --- | --- | --- | --- | --- |
| CNC(=O)Nc1ccc(-c2nc(N3CCOCC3)c3cnn(C4CCN(Cc5cccc(C)c5)CC4)c3n2)cc1 [Compound 674, 1-methyl-3-(4-{1-[1-(3-methylbenzyl)piperidin-4-yl]-4-morpholin-4-yl-1H-pyrazolo[3,4-d]pyrimidin-6-yl}phenyl)urea] | 52 | 42 |  | 190 |  |
| COC(=O)Nc1ccc(-c2nc(N3CCOCC3)c3cnn(C4CCN(C(C)=O)CC4)c3n2)cc1 [Compound 809, methyl {4-[1-(1-acetylpiperidin-4-yl)-4-morpholin-4-yl-1H-pyrazolo[3,4-d]pyrimidin-6-yl]phenyl}carbamate] |  | 2100 | 2300 |  | 4500 |
| CC(C)OC(=O)N1CCC(n2ncc3c(N4CCOCC4)nc(-c4ccc(NC(=O)Nc5ccccc5)cc4)nc32)CC1 [Compound 836, isopropyl 4-(6-{4-[(anilinocarbonyl)amino]phenyl}-4-morpholin-4-yl-1H-pyrazolo[3,4-d]pyrimidin-1-yl)piperidine-1-carboxylate] |  | 56 | 58 |  | 170 |
| CN(C)CCCNC(=O)c1ccc(-c2nc(N3CCOCC3)c3cnn(-c4ccccc4)c3n2)cc1 [Compound 102] |  | 320 | 3200 |  | 7500 |
| COC(=O)Nc1ccc(-c2nc(N3CCOCC3)c3cnn(C4CCN(C(=O)C(F)(F)F)CC4)c3n2)cc1 [Compound 811, methyl (4-{4-morpholin-4-yl-1-[1-(trifluoroacetyl)piperidin-4-yl]-1H-pyrazolo[3,4-d]pyrimidin-6-yl}phenyl)carbamate] |  | 1350 | 1900 |  | 4600 |
| NC(=O)c1ccc(-c2nc(N3CCOCC3)c3cnn(-c4ccccc4)c3n2)cc1 [Compound 100] |  | 359 | 60000 |  | 60000 |
| Clc1ccc(CN2CCC(n3ncc4c(N5CCOCC5)nc(-c5ccc6[nH]ccc6c5)nc43)CC2)cn1 [Compound 174, 1-{1-[(6-chloropyridin-3-yl)methyl]piperidin-4-yl}-6-(1H-indol-5-yl)-4-orpholin-4-yl-1H-pyrazolo[3,4-d]pyrimidine] |  | 304 | 1000 |  | 2800 |
| O=C(Nc1ccc(-c2nc(N3CCOCC3)c3cnn(C4CCN(C(=O)OCc5ccccc5)CC4)c3n2)cc1)Nc1cccnc1 [Compound 881, benzyl 4-(4-morpholin-4-yl-6-{4-[(pyridin-3-ylcarbamoyl)amino]phenyl}-1H-pyrazolo[3,4-d]pyrimidin-1-yl)piperidine-1-carboxylate] |  | 7 | 60 |  | 300 |
| O=C(Nc1ccncc1)Nc1ccc(-c2nc(N3CCOCC3)c3cnn(C4CCN(C(=O)c5ccccc5)CC4)c3n2)cc1 [Compound 629, 1-{4-[1-(1-benzoylpiperidin-4-yl)-4-morpholin-4-yl-1H-pyrazolo[3,4-d]pyrimidin-6-yl]phenyl}-3-pyridin-4-ylurea] | 42 | 19 |  | 70 |  |
| O=C(CCl)N1CCC(n2ncc3c(N4CCOCC4)nc(-c4ccc5[nH]ccc5c4)nc32)CC1 [Compound 93] |  | 337 | 1100 |  | 1200 |
| C[C@H]1COCCN1c1nc(-c2cccc(O)c2)nc2c1cnn2-c1ccccc1 [Compound 726, 3-{4-[(3S)-3-methylmorpholin-4-yl]-1-phenyl-1H-pyrazolo[3,4-d]pyrimidin-6-yl}phenol] |  | 98 | 2700 |  | 8000 |
| c1ccc(-n2ncc3c(N4CCOCC4)nc(-c4cc5ccccc5s4)nc32)cc1 [Compound 113] |  | 2170 | 22000 |  | 23000 |
| O=C(Nc1ccc(-c2nc(N3CCOCC3)c3cnn(C4CCN(Cc5ccccc5)CC4)c3n2)cc1)NN1CCCC1 [Compound 291, 1-{4-[1-(1-benzylpiperidin-4-yl)-4-morpholin-4-yl-1H-pyrazolo[3,4-d]pyrimidin-6-yl]phenyl}-3-pyrrolidin-1-ylurea] |  | 4230 | 3000 |  | 10000 |
| CN(C)S(=O)(=O)c1ccc(-c2nc(N3CCOCC3)c3cnn(C4CCN(Cc5ccccc5)CC4)c3n2)cc1 [Compound 87] |  | 780 | 23000 |  | 60000 |
| CNC(=O)Nc1ccc(-c2nc(N3CCOCC3)c3cnn(C4CCN(CCCCO)CC4)c3n2)cc1 [Compound 743, 1-(4-{1-[1-(4-hydroxybutyl)piperidin-4-yl]-4-morpholin-4-yl-1H-pyrazolo[3,4-d]pyrimidin-6-yl}phenyl)-3-methylurea] |  | 212 | 1800 |  | 2200 |
| CNC(=O)Nc1ccc(-c2nc(N3CCOCC3)c3cnn(C4CCN(Cc5ccccc5Cl)CC4)c3n2)cc1 [Compound 641, 1-(4-{1-[1-(2-chlorobenzyl)piperidin-4-yl]-4-morpholin-4-yl-1H-pyrazolo[3,4-d]pyrimidin-6-yl}phenyl)-3-methylurea] | 38 | 35 |  | 180 |  |
| CNC(=O)Nc1ccc(-c2nc(N3CCOCC3)c3cnn(C4CCN(C(=O)c5cccnc5)CC4)c3n2)cn1 [Compound 725, 1-methyl-3-(5-{4-morpholin-4-yl-1-[1-(pyridin-3-ylcarbonyl)piperidin-4-yl]-1H-pyrazolo[3,4-d]pyrimidin-6-yl}pyridin-2-yl)urea] | 800 | 42 |  | 1150 |  |
| COC(=O)N1CCC(n2ncc3c(N4CCOC(C)C4)nc(-c4ccc(NC(=O)Nc5ccccc5)cc4)nc32)CC1 (stereo not drawn) [Compound 848, methyl 4-[6-{4-[(anilinocarbonyl)amino]phenyl}-4-(2-methylmorpholin-4-yl)-1H-pyrazolo[3,4-d]pyrimidin-1-yl]piperidine-1-carboxylate] |  | 60 | 62 |  | 720 |

Further lines, with some results ahead:

| IC50 [2] [nM] | IC50 [3] [nM] | IC50 ([2]; Homo sapiens, LNCaP, 72 h) [nM] | Compound | IC50 [1] [nM] | IC50 ([1]; Homo sapiens, 72 h) [nM] |
| --- | --- | --- | --- | --- | --- |
|  | 18 | 40 | O=C(Nc1ccc(-c2nc(N3CCOCC3)c3cnn(C4CCN(C(=O)c5cccnc5)CC4)c3n2)cc1)Nc1ccsc1 [Example 414, 1-(4-{4-morpholin-4-yl-1-[1-(pyridin-3-ylcarbonyl)piperidin-4-yl]-1H-pyrazolo[3,4-d]pyrimidin-6-yl}phenyl)-3-(3-thienyl)urea] |  | 100 |
|  | 5500 | 20000 | COc1ccc(-c2nc(N3CCOCC3)c3cnn(-c4ccccc4)c3n2)cn1 [Example 4] |  | 38000 |
|  | 89 | 27 | CNC(=O)Nc1ccc(-c2nc(N3CCOCC3)c3cnn(C4CCN(C(=O)c5cccc(F)c5)CC4)c3n2)cc1 [Example 357, 1-(4-{1-[1-(3-fluorobenzoyl)piperidin-4-yl]-4-morpholin-4-yl-1H-pyrazolo[3,4-d]pyrimidin-6-yl}phenyl)-3-methylurea] |  | 100 |
|  | 686 | 2500 | Fc1ccc(CN2CCC(n3ncc4c(N5CCOCC5)nc(-c5ccc6[nH]ccc6c5)nc43)CC2)cc1 [Example 55] |  | 3000 |
|  | 45 | 5000 | CNCCNC(=O)Nc1ccc(-c2nc(N3CCOCC3)c3cnn(C4CCN(C(=O)c5cccnc5)CC4)c3n2)cc1 [Example 346, 1-[2-(methylamino)ethyl]-3-(4-{4-morpholin-4-yl-1-[1-(pyridin-3-ylcarbonyl)piperidin-4-yl]-1H-pyrazolo[3,4-d]pyrimidin-6-yl}phenyl)urea] |  | 9000 |
|  | 261 | 95 | O=C(Nc1ccc(-c2nc(N3CCOCC3)c3cnn(C4CCN(C(=O)c5cccnc5)CC4)c3n2)cc1)Nc1ccccn1 [Example 345, 1-(4-{4-morpholin-4-yl-1-[1-(pyridin-3-ylcarbonyl)piperidin-4-yl]-1H-pyrazolo[3,4-d]pyrimidin-6-yl}phenyl)-3-pyridin-2-ylurea] |  | 700 |
|  | 34 | 270 | Oc1cccc(-c2nc(N3CCOCC3)c3cnn(C4CCN(CC5CC5)CC4)c3n2)c1 [Example 13] |  | 1500 |
|  | 778 | 250 | COC(=O)Nc1ccc(-c2nc(N3CCOCC3)c3cnn(C4CCN(C(=O)c5ccccc5Cl)CC4)c3n2)cc1 [Example 444, methyl (4-{1-[1-(2-chlorobenzoyl)piperidin-4-yl]-4-morpholin-4-yl-1H-pyrazolo[3,4-d]pyrimidin-6-yl}phenyl)carbamate] |  | 800 |
|  | 716 | 7300 | CC(C)(C)OC(=O)N1CCC(n2ncc3c(N4CCOCC4)nc(-c4ccc(NC(=O)Nc5cnccn5)cc4)nc32)CC1 [Compound 885, tert-butyl 4-(4-morpholin-4-yl-6-{4-[(pyrazin-2-ylcarbamoyl)amino]phenyl}-1H-pyrazolo[3,4-d]pyrimidin-1-yl)piperidine-1-carboxylate] |  | 24000 |
|  | 35 | 52 | CNC(=O)Nc1ccc(-c2nc(N3CCOCC3)c3cnn(C4CCN(C(=O)c5ccc(Br)cc5)CC4)c3n2)cc1 [Example 360, 1-(4-{1-[1-(4-bromobenzoyl)piperidin-4-yl]-4-morpholin-4-yl-1H-pyrazolo[3,4-d]pyrimidin-6-yl}phenyl)-3-methylurea] |  | 200 |
|  | 262 | 1200 | Brc1ccc(CN2CCC(n3ncc4c(N5CCOCC5)nc(-c5ccc6[nH]ccc6c5)nc43)CC2)cn1 [Example 173, 1-{1-[(6-bromopyridin-3-yl)methyl]piperidin-4-yl}-6-(1H-indol-5-yl)-4-morpholin-4-yl-1H-pyrazolo[3,4-d]pyrimidine] |  | 2700 |
|  | 514 | 355 | COC(=O)Nc1ccc(-c2nc(N3CCOCC3)c3cnn(C4CCN(C(=O)c5cccnc5)CC4)c3n2)cc1 [Example 213, methyl (4-{4-morpholin-4-yl-1-[1-(pyridin-3-ylcarbonyl)piperidin-4-yl]-1H-pyrazolo[3,4-d]pyrimidin-6-yl}phenyl)carbamate] |  | 1200 |
